From publication PMC8826350, “Structural feature-driven pattern analysis for multitarget modulator landscapes” (Bioinformatics, 2021)

Tests used:
ABCC1 [1] = target: T1, ABCC1 (Homo sapiens, UniProt P33527); assay: Calcein AM assay (plate reader), ABCC1-overexpressing H69AR cells; settings: for IC50±SEM ABCC1 Calcein AM: H69AR cells, curve top constrained to reference 7; for mode of modulation of ABCC1 (in words): initial screening at 10 µM, calcein AM assay
ABCB1 [2] = target: T2, ABCB1 (Homo sapiens, UniProt P08183); assay: Calcein AM assay (plate reader), ABCB1-overexpressing A2780/ADR cells
T2 sequence (P08183 whole entry): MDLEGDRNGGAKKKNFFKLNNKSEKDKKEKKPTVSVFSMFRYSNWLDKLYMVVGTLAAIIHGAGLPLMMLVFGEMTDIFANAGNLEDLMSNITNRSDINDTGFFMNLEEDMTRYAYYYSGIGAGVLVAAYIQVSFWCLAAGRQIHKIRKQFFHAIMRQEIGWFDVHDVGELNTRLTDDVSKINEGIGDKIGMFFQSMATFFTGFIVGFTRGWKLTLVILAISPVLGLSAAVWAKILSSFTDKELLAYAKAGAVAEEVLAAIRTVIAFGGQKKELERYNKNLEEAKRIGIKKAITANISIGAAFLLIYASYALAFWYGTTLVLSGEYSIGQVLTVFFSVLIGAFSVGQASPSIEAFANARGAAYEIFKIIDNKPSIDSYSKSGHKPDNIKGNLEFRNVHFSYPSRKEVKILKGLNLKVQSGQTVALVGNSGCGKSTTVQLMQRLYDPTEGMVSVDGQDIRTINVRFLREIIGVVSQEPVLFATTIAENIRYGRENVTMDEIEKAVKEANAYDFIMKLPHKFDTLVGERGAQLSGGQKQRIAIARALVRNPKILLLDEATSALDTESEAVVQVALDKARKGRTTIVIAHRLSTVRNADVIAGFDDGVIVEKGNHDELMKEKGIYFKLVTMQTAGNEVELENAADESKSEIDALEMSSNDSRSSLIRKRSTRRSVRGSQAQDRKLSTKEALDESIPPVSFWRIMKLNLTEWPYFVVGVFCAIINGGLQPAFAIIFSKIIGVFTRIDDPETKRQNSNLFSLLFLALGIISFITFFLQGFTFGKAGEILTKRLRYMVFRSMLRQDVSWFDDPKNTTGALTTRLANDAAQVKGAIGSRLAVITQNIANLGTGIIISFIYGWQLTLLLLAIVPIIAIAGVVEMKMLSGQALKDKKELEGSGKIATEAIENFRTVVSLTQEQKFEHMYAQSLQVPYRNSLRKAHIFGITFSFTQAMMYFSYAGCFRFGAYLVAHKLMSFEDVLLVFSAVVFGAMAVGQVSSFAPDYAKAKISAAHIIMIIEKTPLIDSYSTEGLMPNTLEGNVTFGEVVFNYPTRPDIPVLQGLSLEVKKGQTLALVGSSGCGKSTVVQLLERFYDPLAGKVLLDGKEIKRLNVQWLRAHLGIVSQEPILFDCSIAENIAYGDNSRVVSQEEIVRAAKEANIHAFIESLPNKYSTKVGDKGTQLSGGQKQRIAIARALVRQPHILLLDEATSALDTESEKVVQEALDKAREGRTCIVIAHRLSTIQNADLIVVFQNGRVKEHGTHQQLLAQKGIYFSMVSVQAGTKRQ

ABCG2 [3] = target: T3, ABCG2 (Homo sapiens, UniProt Q9UNQ0); assay: Pheophorbide A assay (flow cytometry), ABCG2-overexpressing MDCK II BCRP cells; format: cell-based; design: host or cells: MDCK II; settings: curve top constrained to reference 8, read-out: IC50±SEM ABCG2 Pheophorbide A
T3 sequence (Q9UNQ0 1-655): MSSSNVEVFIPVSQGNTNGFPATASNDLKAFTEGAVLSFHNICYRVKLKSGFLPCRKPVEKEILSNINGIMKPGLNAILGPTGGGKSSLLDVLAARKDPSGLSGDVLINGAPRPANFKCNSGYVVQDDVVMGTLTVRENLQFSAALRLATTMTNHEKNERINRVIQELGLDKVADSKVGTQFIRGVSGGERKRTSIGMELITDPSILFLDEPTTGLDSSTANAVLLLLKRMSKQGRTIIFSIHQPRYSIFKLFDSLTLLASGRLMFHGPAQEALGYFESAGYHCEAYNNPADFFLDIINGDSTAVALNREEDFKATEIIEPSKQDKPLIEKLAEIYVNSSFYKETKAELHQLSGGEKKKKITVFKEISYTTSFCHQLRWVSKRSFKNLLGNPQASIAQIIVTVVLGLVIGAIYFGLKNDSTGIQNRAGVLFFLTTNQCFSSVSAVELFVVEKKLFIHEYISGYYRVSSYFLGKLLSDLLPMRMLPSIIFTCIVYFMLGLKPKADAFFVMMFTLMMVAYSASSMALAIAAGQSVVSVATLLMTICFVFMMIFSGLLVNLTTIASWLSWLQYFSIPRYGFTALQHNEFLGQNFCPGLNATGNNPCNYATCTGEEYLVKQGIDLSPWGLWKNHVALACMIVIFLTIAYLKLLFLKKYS

ABCG2 [4] = target: T3, ABCG2; assay: Hoechst 33342 assay (plate reader), MDCK II BCRP cells
Protocol: The fluorescence accumulation at an excitation wavelength of 360 nm and an emission wavelength of 460 nm was measured over a period of 120 min in 60 s intervals using a Paradigm microplate reader [Beckman Coulter (Brea, CA, USA)]. The average steady-state fluorescence value was calculated for each well and correlated to the used compound concentration.

ABCC1 [5] = target: T1, ABCC1; assay: Daunorubicin accumulation assay (flow cytometry), H69AR cells
ABCB1 [6] = target: T2, ABCB1; assay: Daunorubicin accumulation assay (flow cytometry), A2780/ADR cells

T1 sequence (P33527 whole entry): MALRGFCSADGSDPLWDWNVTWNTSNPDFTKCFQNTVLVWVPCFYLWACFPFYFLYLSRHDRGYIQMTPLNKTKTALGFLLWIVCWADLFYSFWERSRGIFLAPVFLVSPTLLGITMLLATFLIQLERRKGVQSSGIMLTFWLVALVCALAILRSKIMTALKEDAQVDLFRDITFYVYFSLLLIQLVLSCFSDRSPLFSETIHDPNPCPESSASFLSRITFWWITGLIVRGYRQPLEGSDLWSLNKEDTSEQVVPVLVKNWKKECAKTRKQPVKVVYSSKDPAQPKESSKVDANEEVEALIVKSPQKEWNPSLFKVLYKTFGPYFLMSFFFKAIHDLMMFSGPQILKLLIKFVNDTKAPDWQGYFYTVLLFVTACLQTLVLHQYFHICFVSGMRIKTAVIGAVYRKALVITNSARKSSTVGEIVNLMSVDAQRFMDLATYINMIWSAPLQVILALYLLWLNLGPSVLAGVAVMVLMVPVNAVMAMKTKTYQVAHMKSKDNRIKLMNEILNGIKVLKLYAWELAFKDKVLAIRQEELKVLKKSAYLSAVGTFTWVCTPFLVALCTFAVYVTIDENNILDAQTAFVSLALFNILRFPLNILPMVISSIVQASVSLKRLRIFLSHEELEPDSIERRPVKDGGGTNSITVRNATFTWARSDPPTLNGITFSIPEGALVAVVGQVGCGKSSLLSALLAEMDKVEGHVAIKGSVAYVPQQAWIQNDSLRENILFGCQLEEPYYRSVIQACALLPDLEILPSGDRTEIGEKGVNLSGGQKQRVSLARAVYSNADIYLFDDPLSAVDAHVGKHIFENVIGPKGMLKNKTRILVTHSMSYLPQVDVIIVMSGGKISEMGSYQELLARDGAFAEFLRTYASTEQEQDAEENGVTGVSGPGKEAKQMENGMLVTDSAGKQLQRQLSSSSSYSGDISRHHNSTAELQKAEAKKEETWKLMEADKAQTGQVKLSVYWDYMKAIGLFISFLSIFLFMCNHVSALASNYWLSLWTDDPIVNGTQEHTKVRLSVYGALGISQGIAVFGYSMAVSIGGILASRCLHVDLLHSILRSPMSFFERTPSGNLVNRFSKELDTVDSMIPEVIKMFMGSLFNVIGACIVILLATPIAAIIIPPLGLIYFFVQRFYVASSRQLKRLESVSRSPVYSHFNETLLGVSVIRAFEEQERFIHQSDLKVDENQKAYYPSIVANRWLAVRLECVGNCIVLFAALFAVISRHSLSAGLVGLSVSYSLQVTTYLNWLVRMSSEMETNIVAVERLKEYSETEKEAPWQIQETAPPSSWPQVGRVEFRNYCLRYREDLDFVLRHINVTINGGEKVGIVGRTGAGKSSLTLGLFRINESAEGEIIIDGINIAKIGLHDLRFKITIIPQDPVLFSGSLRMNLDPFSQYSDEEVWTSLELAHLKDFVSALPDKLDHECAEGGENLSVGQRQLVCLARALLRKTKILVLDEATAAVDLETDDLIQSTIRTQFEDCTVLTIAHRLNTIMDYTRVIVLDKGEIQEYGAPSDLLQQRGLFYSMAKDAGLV

Compound	IC50±SEM ABCC1 Calcein AM (ABCC1 [1])	mode of modulation of ABCC1 (in words) (ABCC1 [1])	IC50 (ABCB1 [2])	IC50 (ABCG2 [3])	IC50 (ABCB1 [6])	IC50 (ABCG2 [4])	IC50 (ABCC1 [1])	IC50 (ABCC1 [5])
Cn1c(=O)n(C)c2cc(S(=O)(=O)N3CCN(C(c4ccccc4)c4ccccc4)CC3)ccc21 [Compound 2]	n.i.	apparent slight activation of ABCC1	8.26 ± 0.54 µM	25.8 ± 12.1 µM				
Cc1onc(-c2ccccc2Cl)c1C(=O)N1CCN(Cc2nnnn2-c2ccc(F)cc2)CC1 [Compound 3]				15.9 ± 1.1 µM		37.9 ± 12.5 µM	38.6 ± 2.2 µM	38.7 ± 15.2 µM
O=C(C1c2ccccc2Oc2ccccc21)N1CCN(Cc2nnnn2-c2ccc(F)cc2)CC1 [Compound 4]	n.i.		15.5 ± 1.3 µM	15.1 ± 1.2 µM				

Now from value to molecule, other results behind:

IC50±SEM ABCC1 Calcein AM (ABCC1 [1])	mode of modulation of ABCC1 (in words) (ABCC1 [1])	IC50 (ABCB1 [2])	IC50 (ABCG2 [3])	IC50 (ABCB1 [6])	Compound	IC50 (ABCG2 [4])	IC50 (ABCC1 [1])	IC50 (ABCC1 [5])
n.i.	apparent slight activation of ABCC1	22.7 ± 5.4 µM	7.89 ± 0.44 µM		Cc1ccccc1Cn1c(N2CCN(CCc3ccccc3)CC2)nc2c1c(=O)[nH]c(=O)n2C [Compound 1]			
		25.6 ± 1.1 µM	12.4 ± 1.3 µM	80.2 ± 30.1 µM	COc1ccc(OCc2noc(CN3CCN(C(=O)C45CC6CC(CC(C6)C4)C5)CC3)n2)cc1 [Compound 5]	28.5 ± 6.1 µM	60.9 ± 14 µM	57 ± 6.5 µM
